From PubChem BioAssay (NCI)
Where “and” joins values, the source holds several entries; their conditions need not be identical. Equal entries are not always repeated.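 96-well plates; 48 h exposure; 5 concentrations. Endpoints by linear interpolation between flanking doses. Not reached: highest tested concentration assigned. GI50: concentration for 50% inhibition of growth. TGI: total growth inhibition.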

Columns and labels:
Assay in all cases: growth of human tumour cells (NCI), 48 h
EKVX NSCLC = system: EKVX NSCLC
IGROV1 ovarian = system: IGROV1 ovarian
NCI-H460 lung = system: NCI-H460 lung
NCI-H522 lung = system: NCI-H522 lung
OVCAR-3 ovarian = system: OVCAR-3 ovarian
RXF 393 renal = system: RXF 393 renal
SF-268 CNS = system: SF-268 CNS
SW-620 colon = system: SW-620 colon
UACC-257 melanoma = system: UACC-257 melanoma
T-47D breast = system: T-47D breast

| SMILES | GI50 (EKVX NSCLC) | TGI (EKVX NSCLC) | TGI (IGROV1 ovarian) | GI50 (NCI-H460 lung) [µM] | TGI (NCI-H460 lung) | GI50 (NCI-H522 lung) [µM] | TGI (NCI-H522 lung) [µM] | TGI (OVCAR-3 ovarian) | GI50 (RXF 393 renal) | TGI (RXF 393 renal) | TGI (SF-268 CNS) | GI50 (SW-620 colon) | TGI (SW-620 colon) | GI50 (UACC-257 melanoma) | TGI (UACC-257 melanoma) | GI50 (IGROV1 ovarian) [µM] | GI50 (OVCAR-3 ovarian) | GI50 (SF-268 CNS) [µM] | GI50 (T-47D breast) [µM] | TGI (T-47D breast) [µM] |
| --- | --- | --- | --- | --- | --- | --- | --- | --- | --- | --- | --- | --- | --- | --- | --- | --- | --- | --- | --- | --- |
| COc1cc(C2c3cc4c(cc3[C@@H](NC3CCN(Cc5ccccc5)CC3)C3COC(=O)[C@H]23)OCO4)cc(OC)c1O (some centres not stated) | 0.369 µM and 0.783 µM | 2.43 µM and 3.96 µM | 3.59 µM and 0.567 µM | < 0.01 | 0.194 µM and 0.116 µM | 0.0827 | 0.321 | 1.56 µM and 1.04 µM | 0.185 µM and 0.399 µM | 0.768 µM and 0.927 µM | 1.98 µM and 0.584 µM | 0.232 µM and 0.076 µM | 2.42 µM and 1.08 µM | 1.42 µM and 0.256 µM | 11.9 µM and 2.12 µM | – | – | – | – | – |
| COc1ccc(N=NC2=C(O)CCC2=O)cc1 | – | > 100 µM | > 100 µM | – | > 100 µM | – | – | > 100 µM | – | > 100 µM | > 100 µM | – | > 100 µM | – | > 100 µM | – | – | – | – | – |
| C[C@@H]1CC[C@@H]2[C@@H]1[C@H](OC(=O)/C=C/C1CCCCC1)[C@]1(C3CCCCC3)C[C@@H](OC(=O)CO)[C@@]2(C)O1 | 12.1 µM | 24.4 µM | 29.8 µM | 14.6 | 30 µM | 13.7 | 27.1 | 26.7 µM | – | – | 19.7 µM | 15.5 µM | 29.8 µM | 15.8 µM | 29.6 µM | 14.4 | 13.8 µM | 0.859 | 11.1 | 24.1 |
| Cc1[nH]nc(C(F)(F)F)c1Cc1sc2c(c1C(=O)N1C[C@](C)(O)CO1)c(=O)n(C)c(=O)n2C(C)C | > 100 µM | > 100 µM | – | > 100 | > 100 µM | 3.26 | > 100 | > 100 µM | > 100 µM | > 100 µM | > 100 µM | > 100 µM | > 100 µM | – | – | – | > 100 µM | > 100 | > 100 | > 100 |
| OC1OCC(COc2cc(Cl)c(Cl)cc2Cl)OC1O (configuration not stated) | – | 81.9 µM | > 100 µM | – | > 100 µM | – | 70.8 | 69.5 µM | – | – | > 100 µM | – | 47.7 µM | – | > 100 µM | – | – | – | – | – |
| C=CC1=C(C)C(/C=c2\[nH]/c(=C/c3[nH]c(CC4NC(=O)C(C)/C4=C\C)c(C)c3CCC(=O)O)c(CC(=O)O)c2C)=NC1=O (configuration not stated) | – | > 100 µM | > 100 µM | – | > 100 µM | – | > 100 | > 100 µM | – | > 100 µM | > 100 µM | – | > 100 µM | – | > 100 µM | – | – | – | – | – |
| CC1(C)CC(=O)C(CC2C(=O)CCCC2=O)C(=O)C1 | – | > 100 µM | > 100 µM | – | > 100 µM | – | > 100 | > 100 µM | – | > 100 µM | > 100 µM | – | > 100 µM | – | > 100 µM | – | – | – | – | – |
| Cc1ccsc1C(NC(=O)c1ccccc1)c1cc(Cl)c2cccnc2c1O (configuration not stated) | 0.371 µM | 10.9 µM | 4.77 µM | 0.341 | 2.03 µM | 0.271 | 2.11 | 12.1 µM | 1.77 µM | 6.08 µM | 12.1 µM | 0.4 µM | 15 µM | – | – | 0.55 | 0.354 µM | 0.6 | 0.426 | 7.3 |
| O=C1c2ccccc2C(=O)N1CC#CCO | – | > 100 µM | – | – | > 100 µM | – | > 100 | > 100 µM | – | > 100 µM | > 100 µM | – | > 100 µM | – | > 100 µM | – | – | – | – | – |
| Cc1cc(-c2ccccc2)nc(Nc2cc3ccccc3[nH]2)n1 | – | > 100 µM | > 100 µM | – | > 100 µM | – | > 100 | > 100 µM | – | – | > 100 µM | – | > 100 µM | – | > 100 µM | – | – | – | – | – |
| Cc1nnc(N/N=C/c2ccc([N+](=O)[O-])o2)[nH]c1=O | 1.05 µM | > 100 µM | > 100 µM | 3.19 | 14.6 µM | 0.914 | 5.58 | 3.18 µM | – | – | > 57.9 µM | 1.24 µM | > 100 µM | 0.0512 µM | 5.26 µM | 3.82 | 0.429 µM | 0.521 | 1.07 | 13.8 |
| CC1=CC(C)=N/C(=N/S(=O)(=O)c2cc(C)c(Cl)cc2SCc2ccccc2)NN1 | 98.6 µM | > 100 µM | > 100 µM | > 100 | > 100 µM | 96.6 | > 100 | > 100 µM | – | – | > 100 µM | > 100 µM | > 100 µM | > 100 µM | > 100 µM | > 100 | > 100 µM | 78.1 | > 100 | > 100 |
| Nc1nc(N)c2c(ccc3c2ccn3Cc2cccc([N+](=O)[O-])c2)n1 | 1.32 µM | – | 0.0255 µM | 0.00501 | 1.89 µM and 1.35 µM | 0.0607 | 1.82 | 2.24 µM and 2.22 µM | – | – | 1.99 µM | 0.00556 µM | 1.73 µM and 1.64 µM | 1.07 µM | 2.47 µM | 0.00295 | 1.01 µM and 0.794 µM | 0.0535 | 0.739 | 3.05 |
| O=C(Nc1ccc(Br)c2ccccc12)c1ccc2ccccc2c1O | – | > 100 µM | 16.4 µM | – | 13.1 µM | – | 6.83 | 35.7 µM | – | – | 31.8 µM | – | 14.8 µM | – | 23.9 µM | – | – | – | – | 14.5 |
| C=CCC1(CN(C)C)CC/C(=C\c2ccc3c(c2)OCO3)C1=O (configuration not stated) | – | 66.9 µM | > 100 µM | – | > 100 µM | – | 40.2 | > 100 µM | – | > 100 µM | > 100 µM | – | > 100 µM | – | > 100 µM | – | – | – | – | – |
| Cc1cc(OCc2ccc(C(F)(F)F)cc2)c2c(c1)C(=O)C=C(NCCN1CCCC1)C2=O | – | – | 25.1 µM | 1.84 | 3.43 µM | 2.66 | 6.05 | 6.47 µM | 1.37 µM | 2.94 µM | 4.24 µM | 1.78 µM | 3.48 µM | 1.67 µM | 3.27 µM | 6.69 | 2.52 µM | 1.97 | – | – |
| CCC(O)CCCCCCCCCCCCCCC(=O)O (configuration not stated) | – | > 100 µM | > 100 µM | – | > 100 µM | – | > 100 | > 100 µM | – | > 100 µM | > 100 µM | – | > 100 µM | – | > 100 µM | – | – | – | – | – |
| CC1=CC2(C)/C=C(C)/C=C\CC(O)/C=C3/C=CC(=C4C(=O)OC2(CC1C)C4=O)OC3 (configuration not stated) | 3.09 µM | > 31.7 µM | 8.93 µM | 3.84 | 15.7 µM | 2.46 | 8.55 | 2.5 µM | – | – | 4.75 µM | 0.512 µM | 2.72 µM | 1.82 µM | 4.36 µM | 2.93 | 1.18 µM | 2.09 | 1.63 | 6.52 |
| CCO/C=C\C12CCCC1NC(c1ccccc1)(c1ccccc1)O2 (configuration not stated) | – | > 100 µM | 71.1 µM | – | > 100 µM | – | 83.3 | 55.7 µM | – | 81.3 µM | > 100 µM | – | > 100 µM | – | 85.5 µM | – | – | – | – | – |
| C/C(=N\N=C(N)N)C(CN1CCOCC1)C(c1ccccc1)c1c(O)c2ccccc2oc1=O (configuration not stated) | – | > 100 µM | > 100 µM | – | > 100 µM | – | > 100 | > 100 µM | – | > 100 µM | > 100 µM | – | > 100 µM | – | > 100 µM | – | – | – | – | – |
| COc1ccc(C(C2=C(O)CC(C)OC2=O)C2=C(O)CC(C)OC2=O)cc1 (configuration not stated) | – | > 100 µM | > 100 µM | – | > 100 µM | – | > 100 | > 100 µM | – | – | > 100 µM | – | > 100 µM | – | > 100 µM | – | – | – | – | – |
| CC1C(c2ccccc2)N(C)C(c2ccccc2)C(C)C1(O)c1ccccc1 (configuration not stated) | – | > 100 µM | > 100 µM | – | > 100 µM | – | > 100 | > 100 µM | – | > 100 µM | > 100 µM | – | > 100 µM | – | > 100 µM | – | – | – | – | – |
| Cc1ccc(/C=C2\CCCCC2=O)cc1 | – | > 100 µM | > 100 µM | – | > 100 µM | – | – | > 100 µM | – | – | > 100 µM | – | > 100 µM | – | – | – | – | – | – | – |
| COc1cc(/C=C2\[C@@H]3NC(Cc4c(OC)c(C)c(OC)c(OC)c43)C(=O)N2Cc2ccccc2)c(OC)c(C)c1OC | – | 90.5 µM | > 100 µM | – | 60.7 µM | – | 55 | > 100 µM | – | 72.8 µM | > 100 µM | – | > 100 µM | – | > 100 µM | – | – | – | – | – |
| CCCCCCCCCC1CC(=O)OC2=C1C(=O)CCC2 (configuration not stated) | – | > 100 µM | > 100 µM | – | > 100 µM | – | > 100 | > 100 µM | – | > 100 µM | > 100 µM | – | > 100 µM | – | > 100 µM | – | – | – | – | – |
| COc1nn(C)cc1Nc1nccc(-c2c[nH]c3c(NC(=O)[C@@H](C)N4CCN(C)CC4)cccc23)n1 | 47 µM | > 100 µM | > 100 µM | 40.7 | > 100 µM | 43.2 | > 100 | > 100 µM | 16.6 µM | 42.2 µM | > 100 µM | 40.8 µM | > 100 µM | 27.7 µM | 78.7 µM | 18.9 | 56.1 µM | 36 | – | – |
| CC1(c2ccc(F)cc2)C2C(=O)NC(=O)C1C(=O)NC2=O (configuration not stated) | – | > 100 µM | > 100 µM | – | > 100 µM | – | > 100 | > 100 µM | – | > 100 µM | > 100 µM | – | > 100 µM | – | > 100 µM | – | – | – | – | – |
